Measured values as given in US8431593B2, “Heteroaryl amide derivatives” (H. Lundbeck A/S, priority 2006, dated 2013).

Molecular target: T1, P2X7 receptor (Homo sapiens, UniProt Q99572)
T1 construct: host or cells: SH-SY5Y
T1 sequence (Q99572 1-595): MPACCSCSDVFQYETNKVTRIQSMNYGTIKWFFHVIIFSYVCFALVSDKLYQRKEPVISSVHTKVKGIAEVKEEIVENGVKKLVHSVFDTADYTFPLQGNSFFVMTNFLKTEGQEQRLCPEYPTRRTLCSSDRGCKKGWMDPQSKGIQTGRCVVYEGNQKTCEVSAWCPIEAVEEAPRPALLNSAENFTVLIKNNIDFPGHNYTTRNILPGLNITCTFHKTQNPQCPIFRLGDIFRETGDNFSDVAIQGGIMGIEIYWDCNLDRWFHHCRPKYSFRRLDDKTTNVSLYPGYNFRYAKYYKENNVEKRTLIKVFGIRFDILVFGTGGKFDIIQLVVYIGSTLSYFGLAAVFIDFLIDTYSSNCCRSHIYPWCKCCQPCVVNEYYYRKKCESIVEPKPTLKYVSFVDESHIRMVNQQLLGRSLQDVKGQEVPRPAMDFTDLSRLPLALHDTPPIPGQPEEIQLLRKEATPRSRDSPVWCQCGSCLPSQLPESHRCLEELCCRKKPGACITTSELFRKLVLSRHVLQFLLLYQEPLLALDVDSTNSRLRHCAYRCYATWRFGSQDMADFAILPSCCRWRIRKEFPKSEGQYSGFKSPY
Experiment: P2X7 calcium mobilization assay, high throughput, antagonist activity (Example 4A)
Format: cell-based
Conditions: 50% decrease in the fluorescence response of cells exposed to 80 μM of 2′(3′)-O-(4-benzoyl-benzoyl)adenosine 5′-triphosphate; Example 4A; read-out: IC50
Outline: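 Dye-loaded cells (100,000/well, seeded previous day) are pre-exposed to compound for an hour at room temperature. Fluorescence maxima are baseline-corrected against no-agonist wells and compared with the averaged agonist-well maximum.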

| Structure (SMILES) | IC50 |
| --- | --- |
| CC1(C)C2CC[C@H](CNC(=O)c3cccc4nc(CC(=O)NC5CCCC5)cn34)C1C2 (stereo partly drawn) [Compound 791, 2-[2-(cyclopentylamino)-2-oxoethyl]-N-{[(2S)-6,6-dimethylbicyclo [3.1.1]hept-2-yl]methyl}imidazo [1,2-a]pyridine-5-carboxamide] | < 2000 nM |
| CC(C)CC(CNC(=O)c1cccc2nc(CC(=O)N3CCCC(N(C)C)C3)cn12)c1ccc(Cl)cc1 (centres unmarked) [Compound 792, N-[2-(4-chlorophenyl)-4-methylpentyl]-2-{2-[3-(dimethylamino)piperidin-1-yl]-2-oxoethyl} imidazo[1,2-a] pyridine-5-carboxamide] | < 2000 nM |
| CC1(C)C2CC[C@H](CNC(=O)c3cccc4nc(CC(=O)NCC(F)(F)F)cn34)C1C2 (stereo partly drawn) [Compound 793, N-{[(2S)-6,6-dimethylbicyclo [3.1.1]hept-2-yl]methyl}-2-{2-oxo-2-[(2,2,2-trifluoroethyl)amino]ethyl}imidazo [1,2-a]pyridine-5-carboxamide] | < 2000 nM |
| CC(C)CC(CNC(=O)c1cccc2nc(CC(=O)NC3CCCC3)cn12)c1ccc(Cl)cc1 (centres unmarked) [Compound 794, N-[2-(4-chlorophenyl)-4-methylpentyl]-2-[2-(cyclopentylamino)-2-oxoethyl]imidazo [1,2-a]pyridine-5-carboxamide] | < 2000 nM |
| CC1(C)C2CC[C@H](CNC(=O)c3cccc4nc(CC(=O)N5CCSCC5)cn34)C1C2 (stereo partly drawn) [Compound 795, N-{[(2S)-6,6-dimethylbicyclo[3.1.1]hept-2-yl]methyl}-2-(2-oxo-2-thiomorpholin-4-ylethyl)imidazo[1,2-a] pyridine-5-carboxamide] | < 2000 nM |
| CC(C)CC(CNC(=O)c1cccc2nc(CC(=O)NCC(F)(F)F)cn12)c1ccc(Cl)cc1 (centres unmarked) [Compound 796, N-[2-(4-chlorophenyl)-4-methylpentyl]-2-{2-oxo-2-[(2,2,2-trifluoroethyl)amino]ethyl} imidazo[1,2-a] pyridine-5-carboxamide] | < 2000 nM |
| CC(C)CC(CNC(=O)c1cccc2nc(CC(=O)N3CCSCC3)cn12)c1ccccc1 (centres unmarked) [Compound 797, N-(4-methyl-2-phenylpentyl)-2-(2-oxo-2-thiomorpholin-4-ylethyl)imidazo [1,2-a]pyridine-5-carboxamide] | < 2000 nM |
| CC(C)CC(CNC(=O)c1cccc2nc(CC(=O)N3CCSCC3)cn12)c1ccc(Cl)cc1 (centres unmarked) [Compound 798, N-[2-(4-chlorophenyl)-4-methylpentyl]-2-(2-oxo-2-thiomorpholin-4-ylethyl)imidazo[1,2-a] pyridine-5-carboxamide] | < 2000 nM |
| O=C(NCC12CC3CC(CC(C3)C1)C2)c1cccc2nc(Cn3nnc(-c4cccnc4)n3)cn12 [Compound 813, N-(adamantan-1-ylmethyl)-2-[(5-pyridin-3-yl-2H-tetrazol-2-yl)methyl] imidazo[1,2-a] pyridine-5-carboxamide] | < 2000 nM |
| O=C(NCC12CC3CC(CC(C3)C1)C2)c1cccc2nc(Cn3nnnc3-c3cccnc3)cn12 [Compound 814, N-(adamantan-1-ylmethyl)-2-[(5-pyridin-3-yl-1H-tetrazol-1-yl)methyl]imidazo [1,2-a]pyridine-5-carboxamide] | < 2000 nM |
| O=C(NCC12CC3CC(CC(C3)C1)C2)c1cccc2nc(Cn3nnc(-c4ccccn4)n3)cn12 [Compound 816, N-(adamantan-1-ylmethyl)-2-[(5-pyridin-2-yl-2H-tetrazol-2-yl)methyl]imidazo [1,2-a]pyridine-5-carboxamide] | < 2000 nM |

The next lines start with the values.

| IC50 | Structure (SMILES) |
| --- | --- |
| < 2000 nM | CCOC(=O)C(Cc1ccc(Cl)cc1)c1cn2c(C(=O)NCC34CC5CC(CC(C5)C3)C4)cccc2n1 (centres unmarked) [Compound 800, ethyl 2-{5-[(adamantan-1-ylmethyl)carbamoyl]imidazo[1,2-a]pyridin-2-yl}-3-(4-chlorophenyl) propanoate] |
| < 2000 nM | CCOC(=O)C(Cc1ccc(OC)cc1)c1cn2c(C(=O)NCC34CC5CC(CC(C5)C3)C4)cccc2n1 (centres unmarked) [Compound 801, ethyl 2-{5-[(adamantan-1-ylmethyl)carbamoyl]imidazo[1,2-a]pyridin-2-yl}-3-(4-methoxyphenyl) propanoate] |
| < 2000 nM | CCOC(=O)C(CC(=O)N1CCOCC1)c1cn2c(C(=O)NCC34CC5CC(CC(C5)C3)C4)cccc2n1 (centres unmarked) [Compound 802, ethyl 2-{5-[(adamantan-1-ylmethyl)carbamoyl]imidazo[1,2-a]pyridin-2-yl}-4-morpholin-4-yl-4-oxobutanoate] |
| < 2000 nM | O=C(NCC12CC3CC(CC(C3)C1)C2)c1cccc2nc(C(CC(=O)N3CCOCC3)C(=O)O)cn12 (centres unmarked) [Compound 803, 2-{5-[(adamantan-1-ylmethyl)carbamoyl]imidazo[1,2-a]pyridin-2-yl}-4-morpholin-4-yl-4-oxobutanoic acid] |
| < 2000 nM | O=C(NCC12CC3CC(CC(C3)C1)C2)c1cccc2nc(C(Cc3ccc(Cl)cc3)C(=O)O)cn12 (centres unmarked) [Compound 804, 2-{5-[(adamantan-1-ylmethyl)carbamoyl]imidazo[1,2-a]pyridin-2-yl}-3-(4-chlorophenyl) propanoic acid] |
| < 2000 nM | COc1ccc(CC(C(=O)O)c2cn3c(C(=O)NCC45CC6CC(CC(C6)C4)C5)cccc3n2)cc1 (centres unmarked) [Compound 805, 2-{5-[(adamantan-1-ylmethyl)carbamoyl]imidazo[1,2-a]pyridin-2-yl}-3-(4-methoxyphenyl) propanoic acid] |
| < 2000 nM | CC(C)(C)OC(=O)C(C#N)Cc1cn2c(C(=O)NCC34CC5CC(CC(C5)C3)C4)cccc2n1 (centres unmarked) [Compound 806, tert-butyl 3-{5-[(adamantan-1-ylmethyl)carbamoyl]imidazo[1,2-a]pyridin-2-yl}-2-cyanopropanoate] |
| < 2000 nM | CNC(=O)CC1(c2cn3c(C(=O)NCC45CC6CC(CC(C6)C4)C5)cccc3n2)CC(=O)N(C)C1=O (centres unmarked) [Compound 807, N-(adamantan-1-ylmethyl)-2-{1-methyl-3-[2-(methylamino)-2-oxoethyl]-2,5-dioxopyrrolidin-3-yl}imidazo[1,2-a] pyridine-5-carboxamide] |
| < 2000 nM | CCNC(=O)CC1(c2cn3c(C(=O)NCC45CC6CC(CC(C6)C4)C5)cccc3n2)CC(=O)N(CC)C1=O (centres unmarked) [Compound 808, N-(adamantan-1-ylmethyl)-2-{1-ethyl-3-[2-(ethylamino)-2-oxoethyl]-2,5-dioxopyrrolidin-3-yl}imidazo[1,2-a]pyridine-5-carboxamide] |
| < 2000 nM | CCOC(=O)C(CC(=O)N(C)C)c1cn2c(C(=O)NCC34CC5CC(CC(C5)C3)C4)cccc2n1 (centres unmarked) [Compound 809, ethyl 2-{5-[(adamantan-1-ylmethyl)carbamoyl]imidazo[1,2-a]pyridin-2-yl}-4-(dimethylamino)-4-oxobutanoate] |
| < 2000 nM | CCOC(=O)C(CC(=O)N(CC)CC)c1cn2c(C(=O)NCC34CC5CC(CC(C5)C3)C4)cccc2n1 (centres unmarked) [Compound 810, ethyl 2-{5-[(adamantan-1-ylmethyl)carbamoyl]imidazo[1,2-a]pyridin-2-yl}-4-(diethylamino)-4-oxobutanoate] |
| < 2000 nM | CCN(CC)C(=O)CC(C(=O)O)c1cn2c(C(=O)NCC34CC5CC(CC(C5)C3)C4)cccc2n1 (centres unmarked) [Compound 811, 2-{5-[(adamantan-1-ylmethyl)carbamoyl]imidazo[1,2-a]pyridin-2-yl}-4-(diethylamino)-4-oxobutanoic acid] |
| < 2000 nM | CN(C)C(=O)CC(C(=O)O)c1cn2c(C(=O)NCC34CC5CC(CC(C5)C3)C4)cccc2n1 (centres unmarked) [Compound 812, 2-{5-[(adamantan-1-ylmethyl)carbamoyl]imidazo[1,2-a]pyridin-2-yl}-4-(dimethylamino)-4-oxobutanoic acid] |
| < 2000 nM | O=C(Nc1nnn[nH]1)c1cn2c(C(=O)NCC34CC5CC(CC(C5)C3)C4)cccc2n1 [Compound 815, 5-N-(adamantan-1-ylmethyl)-2-N-1H-tetrazol-5-ylmidazo[1,2-a] pyridine-2,5-dicarboxamide] |

Same assay, conditions: 50% decrease in the fluorescence response of cells exposed to 80 μM of 2′(3′)-O-(4-benzoyl-benzoyl)adenosine 5′-triphosphate; determined as in Example 4A; read-out: IC50

| Structure (SMILES) | IC50 |
| --- | --- |
| O=C(NCC12CC3CC(CC(C3)C1)C2)c1cccc2nc(Cn3nnnc3-c3ccncc3)cn12 [Compound 818, N-(adamantan-1-ylmethyl)-2-[(5-pyridin-4-yl-1H-tetrazol-1-yl)methyl]imidazo [1,2-a]pyridine-5-carboxamide] | < 2000 nM |
| O=C(NCC12CC3CC(CC(C3)C1)C2)c1cccc2nc(CC(=O)N3CCS(=O)(=O)CC3)cn12 [Compound 820, N-(adamantan-l-ylmethyl)-2-[2-(1,1-dioxidothio-morpholin-4-yl)-2-oxoethyl] imidazo[1,2-a] pyridine-5-carboxamide] | < 2000 nM |
| N[C@@H]1CCN(Cc2cn3c(C(=O)NCC4(c5ccc(Cl)cc5)CCCCC4)cccc3n2)C1 [Compound 821, 2-{[(3R)-3-aminopyrrolidin-1-yl]methyl}-N-{[1-(4-chlorophenyl)cyclohexyl]methyl} imidazo[1,2-a]pyridine-5-carboxamide] | < 2000 nM |
| N[C@@H]1CCN(Cc2cn3c(C(=O)NCC4(c5ccc(C(F)(F)F)cc5)CCCCC4)cccc3n2)C1 [Compound 822, 2-{[(3R)-3-aminopyrrolidin-1-yl]methyl}-N-({1-[4-(trifluoromethyl)phenyl]cyclohexyl}methyl) imidazo[1,2-a] pyridine-5-carboxamide] | < 2000 nM |
